The record followed here is patent publication US10072011B2, “Substituted bridged urea analogs as sirtuin modulators” (GlaxoSmithKline Intellectual Property (No.2) Limited, priority 2014, dated 2018).

The target of the assay is T1, SIRT1 (Homo sapiens, UniProt Q96EB6).
T1 sequence (Q96EB6 1-747): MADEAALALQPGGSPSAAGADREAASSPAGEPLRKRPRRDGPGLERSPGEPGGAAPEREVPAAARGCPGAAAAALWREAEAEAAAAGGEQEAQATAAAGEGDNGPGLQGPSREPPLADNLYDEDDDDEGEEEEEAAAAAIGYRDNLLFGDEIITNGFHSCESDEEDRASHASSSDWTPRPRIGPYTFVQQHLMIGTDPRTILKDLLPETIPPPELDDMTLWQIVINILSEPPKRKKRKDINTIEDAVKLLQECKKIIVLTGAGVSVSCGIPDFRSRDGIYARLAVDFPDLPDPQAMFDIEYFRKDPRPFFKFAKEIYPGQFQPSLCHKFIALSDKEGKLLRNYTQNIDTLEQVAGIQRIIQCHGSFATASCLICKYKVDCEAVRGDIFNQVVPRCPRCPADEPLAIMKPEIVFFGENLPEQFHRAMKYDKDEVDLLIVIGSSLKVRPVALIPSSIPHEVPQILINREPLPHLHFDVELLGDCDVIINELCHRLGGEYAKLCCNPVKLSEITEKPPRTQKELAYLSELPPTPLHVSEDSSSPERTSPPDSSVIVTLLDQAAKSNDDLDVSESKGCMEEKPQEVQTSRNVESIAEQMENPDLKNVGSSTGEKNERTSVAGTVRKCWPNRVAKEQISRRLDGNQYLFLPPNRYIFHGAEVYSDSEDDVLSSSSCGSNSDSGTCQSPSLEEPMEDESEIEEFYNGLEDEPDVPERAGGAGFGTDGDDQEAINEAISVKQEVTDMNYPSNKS
In words: Trp mass spectrometry assay of SIRT1 activation (Ac-R-H-K-K(Ac)-W-NH2 peptide). In kind it is biochemical. The note with it: Trp peptide 0.5 μM, 120 μM βNAD+, 10 nM SIRT1, 25 min at 25° C.; for Emax: 25 min, read-out: TRP MAX RESP (percent maximum fold activation). In short, it runs like this:
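Mass spectrometry read-out (OAADPR formed, or deacetylated Trp peptide) after a 25 min NAD-dependent deacetylation by E. coli-expressed His-SIRT1, stopped with formic acid.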

`O=C(NC1CC1(F)F)c1ccc2c(n1)N(C(=O)Nc1ccc(F)cn1)[C@H]1CCN2C1` (single isomer, unassigned) [Example 242]: the “TRP Activity (EC1.5, concentration of test compound that results in 150% activation of SIRT1)” value is on record as “A (EC1.5<1 μM)”. Also, the Emax (relative to control (100%)) was above 150%.

In the case of `CC(C)(CCO)NC(=O)c1ccc2c(n1)N(C(=O)Nc1ccccn1)[C@H]1CCN2C1` [Example 209, (4S)—N7-(4-hydroxy-2-methylbutan-2-yl)-N5-(pyridin-2-yl)-3,4-dihydro-1,4-methanopyrido[2,3-b][1, 4] diazepine-5, 7(2H)-dicarboxamide], the “TRP Activity (EC1.5, concentration of test compound that results in 150% activation of SIRT1)” value was “B (EC1.5 1-25 μM)”. The Emax (relative to control (100%)) is above 150%.

For `CC(CO)NC(=O)c1ccc2c(n1)N(C(=O)Nc1ccccn1)[C@H]1CCN2C1` (stereo partly drawn) [Example 10, (4S)—N-7-(1-hydroxypropan-2-yl)-N-5-(pyridin-2-yl)-3,4-dihydro-1,4-methanopyrido [2,3-b] [1, 4] diazepine-5, 7(2H)-dicarboxamide], the “TRP Activity (EC1.5, concentration of test compound that results in 150% activation of SIRT1)” value is reported as “B (EC1.5 1-25 μM)”. For the same compound, under “relative to control (100%)”, the Emax was above 150%. In the same order, the values of `Cc1ccc2c(NC(=O)N3c4nc(C(=O)N[C@H](C)C(F)(F)F)cc(C)c4N4CC[C@H]3C4)n[nH]c2n1` [Example 289, (4S)-9-methyl-N5-(6-methyl-1H-pyrazolo[3,4-b]pyridin-3-yl)-N7-((R)-1,1,1-trifluoropropan-2-yl)-3,4-dihydro-1,4-methanopyrido[2,3-b][1,4]diazepine-5,7(2H)-dicarboxamide] are “A (EC1.5<1 μM)” and above 150%. The matching figures for `O=C(NCC(F)(F)F)c1ccc2c(n1)N(C(=O)Nc1cc(OC[C@H](O)CO)ccn1)[C@H]1CCN2C1` [Example 89, (4S)—N5-(4-((R)-2,3-dihydroxypropoxy)pyridin-2-yl)-N7-(2,2,2-trifluoroethyl)-3,4-dihydro-1,4-methanopyrido[2,3-b][1,4]diazepine-5,7(2H)-dicarboxamide]: “A (EC1.5<1 μM)” and above 150%. In the same order, the values of `O=C(OCC(F)(F)F)c1ccc2c(n1)N(C(=O)Nc1ccccn1)[C@H]1CCN2C1` [Example 278, (4S)-2,2,2-trifluoroethyl 5-(pyridin-2-ylcarbamoyl)-2,3,4,5-tetrahydro-1,4-methanopyrido[2,3-b][1,4]diazepine-7-carboxylate] are “B (EC1.5 1-25 μM)” and above 150%. For the compound `C[C@@H](NC(=O)c1ccc2c(n1)N(C(=O)Nc1ncc(F)cc1F)[C@H]1CCN2C1)C(F)(F)F` [Example 310, (4S)—N5-(3,5-difluoropyridin-2-yl)-N7-((R)-1,1,1-trifluoropropan-2-yl)-3,4-dihydro-1,4-methanopyrido[2,3-b][1,4]diazepine-5,7(2H)-dicarboxamide], the “TRP Activity (EC1.5, concentration of test compound that results in 150% activation of SIRT1)” value is given as “B (EC1.5 1-25 μM)”. Also, for the setting “relative to control (100%)”, the “TRP MAX RESP (percent maximum fold activation)” value was “B (Fold Activation<150%)”. For the compound `Cc1ncc(-c2cc(NC(=O)N3c4nc(C(=O)N[C@H](C)C(F)(F)F)ccc4N4CC[C@H]3C4)ncn2)o1` [Example 318, (4S)—N5-(6-(2-methyloxazol-5-yl)pyrimidin-4-yl)-N7-((R)-1,1,1-trifluoropropan-2-yl)-3,4-dihydro-1,4-methanopyrido[2,3-b][1,4]diazepine-5,7(2H)-dicarboxamide], the “TRP Activity (EC1.5, concentration of test compound that results in 150% activation of SIRT1)” value was “A (EC1.5<1 μM)”. Moreover, the Emax (relative to control (100%)) is below 150%.

On to `O=C(NCCO)c1ccc2c(n1)N(C(=O)Nc1ccccn1)[C@H]1CCN2C1` [Example 13, (4S)—N-7-(2-hydroxyethyl)-N-5-(pyridin-2-yl)-3,4-dihydro-1,4-methanopyrido [2,3-b] [1, 4] diazepine-5, 7(2H)-dicarboxamide], for which the Emax (relative to control (100%)) is above 150%.
